Results taken from ChEMBL document CHEMBL1201862, “PubChem BioAssay data set” (2004).
The source made the active and inactive calls.

Key:
Streptococcus = experiment: GAS UMAA2166 growth inhibition – luminescence, BacTiterGlo, counter-screen for streptokinase expression inhibitor project, dose response (AID 1915); format: functional, organism-based; details: read-out: EC50;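 note: potency for reduction of bacterial viability or growth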
[1] = biological target: T1, Sentrin-specific protease 8 (Homo sapiens, UniProt Q96LD8); format: functional;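 note: luminescence read-out of SENP8 inhibition, dose-response confirmation following an ultra-high-throughput screen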
T1 sequence (Q96LD8 whole entry): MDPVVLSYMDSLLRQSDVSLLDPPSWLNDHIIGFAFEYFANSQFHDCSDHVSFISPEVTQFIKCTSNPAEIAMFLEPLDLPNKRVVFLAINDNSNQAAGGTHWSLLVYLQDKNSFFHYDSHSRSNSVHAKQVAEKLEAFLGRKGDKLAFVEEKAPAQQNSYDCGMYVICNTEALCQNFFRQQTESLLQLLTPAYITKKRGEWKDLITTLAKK

INS1 = experiment: INS-1E survival protection against cytokine death – cell-based, luminescence, retest, dose response (AID 449756); format: functional; details: Rattus norvegicus;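 note: cell death triggered by IL-1 beta plus TNF-alpha plus IFN-gamma mixture; protective hits raise ATP signal compared with cytokine alone wells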
[2] = biological target: Glucose-6-phosphate 1-dehydrogenase (Homo sapiens, UniProt P11413); experiment: inhibition of Homo sapiens G6PD, dose series – biochemical, fluorescence, selectivity assay for P. falciparum G6PD inhibitor project, dose response (AID 504792); format: functional
[3] = biological target: T2, Apoptotic protease-activating factor 1 (Homo sapiens, UniProt O14727); format: functional
T2 sequence (O14727 whole entry): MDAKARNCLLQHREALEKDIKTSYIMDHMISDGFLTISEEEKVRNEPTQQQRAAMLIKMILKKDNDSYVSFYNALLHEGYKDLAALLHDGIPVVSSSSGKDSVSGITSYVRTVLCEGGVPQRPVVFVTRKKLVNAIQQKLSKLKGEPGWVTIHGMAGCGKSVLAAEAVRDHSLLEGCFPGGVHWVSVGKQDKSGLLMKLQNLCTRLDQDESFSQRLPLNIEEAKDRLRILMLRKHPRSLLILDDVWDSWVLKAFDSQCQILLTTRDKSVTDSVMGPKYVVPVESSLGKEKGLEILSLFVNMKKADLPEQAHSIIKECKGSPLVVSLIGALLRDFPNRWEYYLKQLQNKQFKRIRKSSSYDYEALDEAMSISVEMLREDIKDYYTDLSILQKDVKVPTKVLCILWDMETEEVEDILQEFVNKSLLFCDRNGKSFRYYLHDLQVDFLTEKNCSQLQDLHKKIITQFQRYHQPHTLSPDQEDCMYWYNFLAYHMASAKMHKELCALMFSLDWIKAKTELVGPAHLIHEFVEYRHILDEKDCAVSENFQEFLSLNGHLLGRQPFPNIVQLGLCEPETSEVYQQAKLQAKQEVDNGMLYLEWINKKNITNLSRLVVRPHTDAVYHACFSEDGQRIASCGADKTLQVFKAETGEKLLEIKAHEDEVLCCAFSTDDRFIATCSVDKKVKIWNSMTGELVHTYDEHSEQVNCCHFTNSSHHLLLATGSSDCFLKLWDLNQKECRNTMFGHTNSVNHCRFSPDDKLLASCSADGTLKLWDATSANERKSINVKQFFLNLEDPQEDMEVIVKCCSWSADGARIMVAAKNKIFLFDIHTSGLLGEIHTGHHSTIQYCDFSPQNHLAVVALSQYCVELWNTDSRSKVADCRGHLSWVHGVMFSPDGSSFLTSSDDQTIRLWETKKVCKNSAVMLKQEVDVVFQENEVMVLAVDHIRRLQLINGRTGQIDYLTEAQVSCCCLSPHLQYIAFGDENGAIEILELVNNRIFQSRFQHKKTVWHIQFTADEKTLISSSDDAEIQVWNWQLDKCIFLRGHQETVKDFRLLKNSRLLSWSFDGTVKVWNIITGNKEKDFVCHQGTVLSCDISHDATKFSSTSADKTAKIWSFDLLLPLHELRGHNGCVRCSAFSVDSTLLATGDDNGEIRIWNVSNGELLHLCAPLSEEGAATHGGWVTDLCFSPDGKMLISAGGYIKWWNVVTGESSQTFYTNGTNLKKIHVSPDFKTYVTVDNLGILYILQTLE

[4] = biological target: Tyrosine-protein kinase JAK3 (Homo sapiens, UniProt P52333); format: functional
[5] = biological target: Serine/threonine-protein kinase D3 (Homo sapiens, UniProt O94806); format: functional;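 note: determined within a kinase panel screen, with PRKCN as the panel member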
[6] = biological target: Mitogen-activated protein kinase kinase kinase kinase 2 (Homo sapiens, UniProt Q12851); format: functional;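 note: measured as one member of a kinome-wide kinase panel, with MAP4K2 as the panel entry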
[7] = biological target: Mitogen-activated protein kinase kinase kinase kinase 4 (Homo sapiens, UniProt O95819); format: functional
[8] = biological target: High affinity nerve growth factor receptor (Homo sapiens, UniProt P04629); format: functional;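 note: NTRK1 tested as one member of a kinome-wide profiling panel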
[9] = biological target: MAP/microtubule affinity-regulating kinase 3 (Homo sapiens, UniProt P27448); format: functional;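 note: MARK3 affinity measured as one member of a kinome panel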
[10] = biological target: Insulin-like growth factor 1 receptor (Homo sapiens, UniProt P08069); experiment: Navigating the Kinome. Panel member name: IGF1R; format: functional
[11] = biological target: Macrophage colony-stimulating factor 1 receptor (Homo sapiens, UniProt P07333); format: functional;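 note: value comes from the Navigating the Kinome screening panel, CSF1R member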
[12] = biological target: Serine/threonine-protein kinase TAO1 (Homo sapiens, UniProt Q7L7X3); format: functional
[13] = biological target: Proto-oncogene tyrosine-protein kinase receptor Ret (Homo sapiens, UniProt P07949); format: functional;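 note: measured within a kinome-wide profiling panel, RET as the panel member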
[14] = biological target: T3, cAMP-dependent protein kinase catalytic subunit PRKX (Homo sapiens, UniProt P51817); format: functional
T3 sequence (P51817 whole entry): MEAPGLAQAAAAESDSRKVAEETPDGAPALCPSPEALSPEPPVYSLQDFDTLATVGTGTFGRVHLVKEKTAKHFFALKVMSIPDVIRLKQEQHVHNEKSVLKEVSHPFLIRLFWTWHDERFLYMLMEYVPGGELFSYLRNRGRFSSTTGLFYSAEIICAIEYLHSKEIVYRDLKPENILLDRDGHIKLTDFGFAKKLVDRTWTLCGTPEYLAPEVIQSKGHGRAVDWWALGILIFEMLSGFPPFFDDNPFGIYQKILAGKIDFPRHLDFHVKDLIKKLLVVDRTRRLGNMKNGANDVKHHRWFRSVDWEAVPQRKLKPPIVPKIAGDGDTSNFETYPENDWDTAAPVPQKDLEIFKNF

[15] = biological target: Mitogen-activated protein kinase 8 (Homo sapiens, UniProt P45983); format: functional;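 note: value comes from one member of a kinome-wide kinase profiling panel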
[16] = biological target: Glycogen synthase kinase-3 alpha (Homo sapiens, UniProt P49840); format: functional;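 note: GSK3A result taken from a broad kinome-wide kinase panel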
[17] = biological target: BDNF/NT-3 growth factors receptor (Homo sapiens, UniProt Q16620); format: functional;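 note: NTRK2 measured as one member of a broad kinome-wide kinase profiling panel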
[18] = biological target: Vascular endothelial growth factor receptor 1 (Homo sapiens, UniProt P17948); format: functional;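 note: measured within a kinome-wide profiling panel, FLT1 as the panel member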

Insulin-like growth factor 1 receptor, sequence (P08069 31-736 limits assumed): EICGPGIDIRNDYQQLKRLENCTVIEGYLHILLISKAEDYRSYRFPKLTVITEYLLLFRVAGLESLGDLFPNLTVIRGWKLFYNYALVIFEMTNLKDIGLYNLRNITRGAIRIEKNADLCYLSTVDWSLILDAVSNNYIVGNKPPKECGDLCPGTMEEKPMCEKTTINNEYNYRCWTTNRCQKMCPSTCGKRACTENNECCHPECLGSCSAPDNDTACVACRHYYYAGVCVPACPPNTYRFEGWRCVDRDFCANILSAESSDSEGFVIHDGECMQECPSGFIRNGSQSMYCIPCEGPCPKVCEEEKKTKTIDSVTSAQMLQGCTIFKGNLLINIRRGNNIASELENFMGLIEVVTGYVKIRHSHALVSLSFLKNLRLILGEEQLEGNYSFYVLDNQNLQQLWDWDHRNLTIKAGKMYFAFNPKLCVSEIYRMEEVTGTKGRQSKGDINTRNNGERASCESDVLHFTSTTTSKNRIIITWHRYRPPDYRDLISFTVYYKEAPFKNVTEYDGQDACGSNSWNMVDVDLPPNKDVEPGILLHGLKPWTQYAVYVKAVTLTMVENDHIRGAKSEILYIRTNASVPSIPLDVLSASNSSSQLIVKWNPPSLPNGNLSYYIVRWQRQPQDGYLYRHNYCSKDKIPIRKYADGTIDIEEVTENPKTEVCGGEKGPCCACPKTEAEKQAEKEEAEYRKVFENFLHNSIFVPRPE
Insulin-like growth factor 1 receptor, sequence (P08069 741-1367 limits assumed): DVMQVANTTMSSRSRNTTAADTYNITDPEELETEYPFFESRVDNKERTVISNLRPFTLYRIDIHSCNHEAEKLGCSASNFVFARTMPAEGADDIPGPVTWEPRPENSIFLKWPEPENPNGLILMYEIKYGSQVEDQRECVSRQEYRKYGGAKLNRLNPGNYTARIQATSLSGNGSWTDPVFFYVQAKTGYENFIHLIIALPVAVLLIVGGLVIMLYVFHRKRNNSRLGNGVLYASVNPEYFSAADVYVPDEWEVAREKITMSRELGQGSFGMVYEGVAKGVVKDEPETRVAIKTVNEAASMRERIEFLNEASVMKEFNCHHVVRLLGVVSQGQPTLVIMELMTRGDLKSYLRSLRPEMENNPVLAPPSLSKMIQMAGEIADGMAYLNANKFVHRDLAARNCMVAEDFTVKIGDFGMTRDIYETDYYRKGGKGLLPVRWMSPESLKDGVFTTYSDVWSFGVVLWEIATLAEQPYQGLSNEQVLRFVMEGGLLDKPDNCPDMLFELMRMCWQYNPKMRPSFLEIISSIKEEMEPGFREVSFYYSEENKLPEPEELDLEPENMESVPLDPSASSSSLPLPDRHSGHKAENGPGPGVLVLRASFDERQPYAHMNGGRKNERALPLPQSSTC
MAP/microtubule affinity-regulating kinase 3, sequence (P27448 whole entry): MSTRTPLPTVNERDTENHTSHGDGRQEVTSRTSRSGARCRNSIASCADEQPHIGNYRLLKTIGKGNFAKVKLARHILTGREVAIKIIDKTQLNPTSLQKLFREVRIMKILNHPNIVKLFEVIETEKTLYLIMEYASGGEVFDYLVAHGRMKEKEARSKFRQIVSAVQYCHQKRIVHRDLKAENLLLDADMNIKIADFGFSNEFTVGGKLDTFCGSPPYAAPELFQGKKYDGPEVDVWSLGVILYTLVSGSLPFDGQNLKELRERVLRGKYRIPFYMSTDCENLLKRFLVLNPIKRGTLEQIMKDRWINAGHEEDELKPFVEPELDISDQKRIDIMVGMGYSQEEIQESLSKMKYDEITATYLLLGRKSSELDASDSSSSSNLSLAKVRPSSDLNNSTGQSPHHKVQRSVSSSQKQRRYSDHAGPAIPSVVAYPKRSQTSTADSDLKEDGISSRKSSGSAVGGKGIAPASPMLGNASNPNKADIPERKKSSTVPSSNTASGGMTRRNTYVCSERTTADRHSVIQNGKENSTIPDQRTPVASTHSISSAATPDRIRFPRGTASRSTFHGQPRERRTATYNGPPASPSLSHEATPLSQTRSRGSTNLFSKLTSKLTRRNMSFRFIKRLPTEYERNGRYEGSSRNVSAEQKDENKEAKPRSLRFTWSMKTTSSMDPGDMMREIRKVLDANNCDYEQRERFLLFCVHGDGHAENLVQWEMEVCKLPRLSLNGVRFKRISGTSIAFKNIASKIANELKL
Mitogen-activated protein kinase kinase kinase kinase 2, sequence (Q12851 whole entry): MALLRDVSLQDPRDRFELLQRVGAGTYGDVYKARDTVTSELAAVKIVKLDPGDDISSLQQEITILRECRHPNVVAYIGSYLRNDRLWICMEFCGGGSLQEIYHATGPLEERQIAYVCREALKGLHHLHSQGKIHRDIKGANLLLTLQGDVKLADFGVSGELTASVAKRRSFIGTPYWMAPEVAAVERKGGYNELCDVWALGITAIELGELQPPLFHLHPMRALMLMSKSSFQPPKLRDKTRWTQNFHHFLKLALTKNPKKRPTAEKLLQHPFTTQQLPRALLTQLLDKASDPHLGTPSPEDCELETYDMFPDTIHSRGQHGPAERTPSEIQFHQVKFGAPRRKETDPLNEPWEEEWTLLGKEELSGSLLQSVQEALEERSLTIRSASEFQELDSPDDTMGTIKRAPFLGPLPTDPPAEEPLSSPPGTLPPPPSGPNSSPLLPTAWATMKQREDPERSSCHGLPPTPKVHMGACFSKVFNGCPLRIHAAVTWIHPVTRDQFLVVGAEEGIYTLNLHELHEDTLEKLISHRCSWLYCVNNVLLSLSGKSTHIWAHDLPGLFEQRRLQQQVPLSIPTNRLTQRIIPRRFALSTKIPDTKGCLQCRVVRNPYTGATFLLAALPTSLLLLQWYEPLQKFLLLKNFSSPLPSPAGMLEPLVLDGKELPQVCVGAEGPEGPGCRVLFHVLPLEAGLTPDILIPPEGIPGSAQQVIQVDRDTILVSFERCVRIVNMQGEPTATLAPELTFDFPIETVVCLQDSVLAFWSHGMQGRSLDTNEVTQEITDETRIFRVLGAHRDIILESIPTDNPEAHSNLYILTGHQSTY
Mitogen-activated protein kinase kinase kinase kinase 4, sequence (O95819 whole entry): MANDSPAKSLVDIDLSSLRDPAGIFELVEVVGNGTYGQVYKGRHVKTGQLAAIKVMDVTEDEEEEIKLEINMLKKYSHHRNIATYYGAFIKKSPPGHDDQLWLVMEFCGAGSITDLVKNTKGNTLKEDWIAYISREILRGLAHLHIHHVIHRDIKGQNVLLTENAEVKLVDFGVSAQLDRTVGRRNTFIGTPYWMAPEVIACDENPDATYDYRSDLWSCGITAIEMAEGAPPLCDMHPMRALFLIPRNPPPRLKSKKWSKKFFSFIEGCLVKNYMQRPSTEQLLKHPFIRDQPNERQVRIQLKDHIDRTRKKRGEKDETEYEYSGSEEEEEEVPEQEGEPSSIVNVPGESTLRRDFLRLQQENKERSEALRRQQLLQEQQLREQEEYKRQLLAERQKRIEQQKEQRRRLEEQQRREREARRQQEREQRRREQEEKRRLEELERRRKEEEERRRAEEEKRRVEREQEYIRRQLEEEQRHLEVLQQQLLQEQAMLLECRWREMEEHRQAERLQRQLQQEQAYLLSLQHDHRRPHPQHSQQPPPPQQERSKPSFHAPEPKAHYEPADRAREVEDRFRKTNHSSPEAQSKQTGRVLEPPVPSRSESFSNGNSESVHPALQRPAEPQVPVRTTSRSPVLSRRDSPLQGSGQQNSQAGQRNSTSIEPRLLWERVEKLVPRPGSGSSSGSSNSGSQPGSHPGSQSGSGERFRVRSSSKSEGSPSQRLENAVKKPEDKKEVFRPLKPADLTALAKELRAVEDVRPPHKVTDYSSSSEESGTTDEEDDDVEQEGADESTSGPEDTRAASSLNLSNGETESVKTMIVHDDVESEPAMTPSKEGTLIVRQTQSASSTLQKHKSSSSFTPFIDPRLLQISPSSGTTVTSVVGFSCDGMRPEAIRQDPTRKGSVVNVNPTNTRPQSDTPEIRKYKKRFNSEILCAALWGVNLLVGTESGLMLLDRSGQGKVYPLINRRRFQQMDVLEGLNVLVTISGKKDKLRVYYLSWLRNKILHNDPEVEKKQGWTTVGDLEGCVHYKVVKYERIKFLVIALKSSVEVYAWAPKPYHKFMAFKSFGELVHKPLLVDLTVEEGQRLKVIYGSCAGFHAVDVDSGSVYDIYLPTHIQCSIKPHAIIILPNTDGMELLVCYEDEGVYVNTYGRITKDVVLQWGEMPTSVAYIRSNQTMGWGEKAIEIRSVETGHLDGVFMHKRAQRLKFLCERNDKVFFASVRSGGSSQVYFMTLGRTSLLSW
BDNF/NT-3 growth factors receptor, sequence (Q16620 whole entry): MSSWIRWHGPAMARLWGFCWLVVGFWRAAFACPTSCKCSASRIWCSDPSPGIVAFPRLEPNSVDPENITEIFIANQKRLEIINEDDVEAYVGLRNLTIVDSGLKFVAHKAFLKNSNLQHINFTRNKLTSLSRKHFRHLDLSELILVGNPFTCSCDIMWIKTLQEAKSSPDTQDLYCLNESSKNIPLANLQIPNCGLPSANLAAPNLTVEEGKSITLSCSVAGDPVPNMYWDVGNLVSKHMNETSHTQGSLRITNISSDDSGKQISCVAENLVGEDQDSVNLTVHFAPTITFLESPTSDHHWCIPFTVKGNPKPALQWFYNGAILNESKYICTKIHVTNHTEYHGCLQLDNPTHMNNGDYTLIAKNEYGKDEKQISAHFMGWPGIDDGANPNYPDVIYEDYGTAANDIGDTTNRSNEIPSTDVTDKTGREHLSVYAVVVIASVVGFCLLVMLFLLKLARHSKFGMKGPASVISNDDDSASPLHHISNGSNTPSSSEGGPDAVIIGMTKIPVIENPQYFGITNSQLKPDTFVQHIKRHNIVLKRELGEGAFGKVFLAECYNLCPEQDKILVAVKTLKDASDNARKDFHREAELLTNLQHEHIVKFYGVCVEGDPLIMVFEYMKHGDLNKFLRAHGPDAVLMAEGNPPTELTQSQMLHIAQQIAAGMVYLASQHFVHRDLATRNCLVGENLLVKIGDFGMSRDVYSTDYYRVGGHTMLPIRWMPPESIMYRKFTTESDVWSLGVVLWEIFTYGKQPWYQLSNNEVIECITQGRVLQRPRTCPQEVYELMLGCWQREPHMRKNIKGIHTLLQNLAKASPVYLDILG

Row | SMILES | EC50 (Streptococcus) | IC50 [1] | AC50 (INS1) | IC50 [2] | IC50 [3] | Ki [4] | Ki [5] | Ki [6] | Ki [7] | Ki [8] | Ki [9] | Ki [10] | Ki [11] | Ki [12] | Ki [13] | Ki [14] | Ki [15] | Ki [16] | Ki [17] | Ki [18]
1 | Cc1cc(C)c[n+](C2=C([N-]S(=O)(=O)c3cccs3)C(=O)c3ccccc3C2=O)c1 | 9.57 µM (active) | 33.4 µM (active) | 3.12 µM (active) | > 80 µM (inactive) | – | – | – | – | – | – | – | – | – | – | – | – | – | – | – | –
2 | CCCCCCCCCCC[N+](C)(C)CC/C=C1/c2ccccc2Sc2ccc(Cl)cc21 | 7.23 µM (active) | – | – | – | 11.6 µM (active) | – | – | – | – | – | – | – | – | – | – | – | – | – | – | –
3 | CCn1c(-c2nonc2N)nc2cncc(C(=O)N3CCC(N)C3)c21 (stereo not given) | – | – | – | – | – | > 5.01 µM (inactive) | 0.631 µM (active) | > 2.51 µM (inactive) | > 3.16 µM (inactive) | > 3.16 µM (inactive) | 2 µM (active) | > 2.51 µM (inactive) | > 2.51 µM (inactive) | > 6.31 µM (inactive) | > 3.16 µM (inactive) | 0.02 µM (active) | > 5.01 µM (inactive) | 0.398 µM (active) | > 3.98 µM (inactive) | > 3.98 µM (inactive)
4 | Cc1[nH]nc2ccc(-c3cncc(OCC(N)Cc4c[nH]c5ccccc45)c3)cc12 (stereo not given) | – | – | – | – | – | 0.316 µM (active) | 0.00501 µM (active) | 0.0251 µM (active) | 0.0501 µM (active) | > 2.51 µM (inactive) | 0.398 µM (active) | > 2 µM (inactive) | > 2.51 µM (inactive) | > 10 µM (inactive) | > 1.26 µM (inactive) | 0.0631 µM (active) | 1.58 µM (active) | 0.126 µM (active) | > 5.01 µM (inactive) | > 0.398 µM (inactive)
5 | COC(=O)c1ccccc1NC1=C/C(=N\S(=O)(=O)c2cccs2)c2ccccc2C1=O | – | 41.2 µM (active) | 2.19 µM (active) | 27.2 µM (inactive) | 1.82 µM (active) | – | – | – | – | – | – | – | – | – | – | – | – | – | – | –
